According to article PMC4879473 (CPT: Pharmacometrics & Systems Pharmacology, 2016):
One block for each compound: values may come before it.

Experiments:
P‐gp = details: reported value, P-gp-mediated efflux; cited from earlier work
[1] = Physicochemical properties of naloxegol; details: Experimental data
[2] = Naloxegol blood/plasma, microsomal and gut binding inputs; assay type: in vitro ADME; details: plasma
[3] = Apparent permeability of naloxegol in Caco-2 cells; assay type: in vitro ADME; details: human
CYP3A4 = assay: Retrograde calculation of naloxegol metabolic intrinsic clearance; parameters: species or system human
[4] = cited from earlier work
[5] = cited from earlier work; remark: listed apart in the source
CYP3A [6] = details: individual CYP enzymes and human liver microsomes in vitro; cited from earlier work
CYP3A [7] = biological target: CYP3A (Homo sapiens, UniProt P08684); details: ciprofloxacin at 2 mM, in vitro; cited from earlier work
Chain of CYP3A (Homo sapiens, UniProt P08684) (P08684 2-503): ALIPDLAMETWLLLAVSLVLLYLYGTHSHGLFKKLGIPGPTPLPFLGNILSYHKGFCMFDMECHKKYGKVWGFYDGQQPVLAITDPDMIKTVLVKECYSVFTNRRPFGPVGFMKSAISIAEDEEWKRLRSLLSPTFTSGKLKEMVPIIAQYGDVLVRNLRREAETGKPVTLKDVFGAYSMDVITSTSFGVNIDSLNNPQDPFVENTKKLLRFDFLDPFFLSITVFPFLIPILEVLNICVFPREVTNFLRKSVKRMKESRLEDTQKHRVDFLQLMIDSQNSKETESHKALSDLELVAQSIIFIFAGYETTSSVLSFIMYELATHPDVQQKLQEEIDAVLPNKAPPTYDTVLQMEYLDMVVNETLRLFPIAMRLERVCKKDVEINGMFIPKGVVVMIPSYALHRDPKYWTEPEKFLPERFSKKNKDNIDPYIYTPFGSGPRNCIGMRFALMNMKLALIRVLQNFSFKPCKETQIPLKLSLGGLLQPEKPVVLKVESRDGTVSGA

CYP3A/P‐gp = details: clinical DDI studies; cited from earlier work

SMILES: C[C@H]1O[C@@H](O[C@H]2[C@@H](O)C[C@H](O[C@H]3[C@@H](O)C[C@H](O[C@H]4CC[C@@]5(C)[C@H](CC[C@@H]6[C@@H]5C[C@@H](O)[C@]5(C)[C@@H](C7=CC(=O)OC7)CC[C@]65O)C4)O[C@@H]3C)O[C@@H]2C)C[C@H](O)[C@@H]1O [digoxin]
in vitro transporter‐mediated intrinsic clearance (P‐gp): 2.5 µL/min

pKa [1]: 8.45
fraction unbound [2]: 0.958
Papp [3]: 4.55 ×10⁻⁶ cm/s
CYP3A4 CLint (CYP3A4; Retrograde calculation): 0.267 μL/min/pmol protein
microsomal CLint (CYP3A4; human): 36.6 µL/min/mg
SMILES: C=CCN1CC[C@]23c4c5ccc(O)c4O[C@H]2[C@@H](OCCOCCOCCOCCOCCOCCOCCOC)CC[C@@]3(O)[C@H]1C5 [naloxegol]
solubility [4]: highly soluble
parent drug excreted in urine ([5]; 27 mg [14C]naloxegol oral solution, healthy male volunteers): < 6 % of the dose
dose linearity of PK ([5]; dose of up to 1,000 mg): linear or near linear
CLR ([5]; renal clearance from the renal impairment study): 4.74 L/h
CLpo ([5]; total clearance after an oral dose, observed in the ketoconazole DDI study): 150 L/h
CYP enzymes metabolizing naloxegol (CYP3A [6]): metabolized primarily by CYP3A

SMILES: O=C(O)c1cn(C2CC2)c2cc(N3CCNCC3)c(F)cc2c1=O [Ciprofloxacin, ciprofloxacin]
inhibition of erythromycin‐mediated CYP3A activity (CYP3A [7]): 65%

SMILES: CC(=O)N1CCN(c2ccc(OCC3COC(Cn4ccnc4)(c4ccc(Cl)cc4Cl)O3)cc2)CC1 (centres unmarked) [Ketoconazole, ketoconazole]
observed increase of naloxegol AUC (CYP3A/P‐gp): 1,185%
